In patent publication US20180203025A1, “HDL THERAPY MARKERS” (Cerenis Therapeutics Holding SA, priority 2014, published 2018):

Experiments:
[1] = system: SR-BI mRNA in mouse macrophages (J774); test: SR-BI gene expression (real-time PCR) in J774 macrophages; format: cell-based
Description: (§1) J774 were seeded on 6 well plates (300,000 cells/well) and loaded with oxidized-LDL without the use of 3H-cholesterol. […] Gene expression was assayed using the protocols described in Sections 8.3.2 (RNA extraction); 8.3.4 (reverse transcription), and 8.3.5 (qPCR). SR-BI gene expression was determined with Taqman probe Mm00450234.m1 according to the manufacturer's protocol. The reference gene used is HPRT1 (Taqman probe: Mm00446968.m1).
J774 were seeded on 6 well plates (300,000 cells/well) and loaded with oxidized-LDL. […] Gene expression was assayed using the protocols described in Sections 8.3.2 (RNA extraction); 8.3.4 (reverse transcription), and 8.3.5 (qPCR). SR-BI gene (Taqman probe Mm00450234.m1), ABCG1 (Taqman probe Mm00437390.m1), SREBP1 (Taqman probe Mm01138344.m1) and ABCA1 (Taqman probe Mm00442646.m1) expression were determined according to the manufacturer's protocol. […]
J774 were seeded on 6 well plates (600,000 cells/well) in DMEM 10% FCS. […] ABCG1 (Taqman probe Mm00437390.m1), ABCA1 (Taqman probe Mm00442646.m1) and SR-BI (Taqman probe Mm00450234.m1) expression were determined according to the manufacturer's protocol. […]
J774 were seeded on 6 well plates (300,000 cells/well) in DMEM 2.5% FCS. […] ABCA1 (Taqman probe Mm00442646.m1), ABCG1 (Taqman probe Mm00437390.m1), and SR-BI (Taqman probe Mm00450234.m1) expression were determined according to the manufacturer's protocol. […]

[2] = system: ABCG1 mRNA in mouse macrophages (J774); test: ABCG1 gene expression (real-time PCR) in J774 macrophages; format: cell-based
Description: as §1, with “^3H-cholesterol.” for “3H-cholesterol.”, “ABCG1” for “SR-BI”, “Mm00437390.m1” for “Mm00450234.m1”
(§2) J774 were seeded on 6 well plates (300,000 cells/well) and loaded with oxidized-LDL. […] Gene expression was assayed using the protocols described in Sections 8.3.2 (RNA extraction); 8.3.4 (reverse transcription), and 8.3.5 (qPCR). SR-BI gene (Taqman probe Mm00450234.m1), ABCG1 (Taqman probe Mm00437390.m1), SREBP1 (Taqman probe Mm01138344.m1) and ABCA1 (Taqman probe Mm00442646.m1) expression were determined according to the manufacturer's protocol. The reference gene used is HPRT1 (Taqman probe: Mm00446968.m1).
as §2, with “(qPCR).” for “(qPCR). SR-BI gene (Taqman probe Mm00450234.m1),”, “Mm00437390.m1)” for “Mm00437390.m1), SREBP1 (Taqman probe Mm01138344.m1)”
as §2, with “(qPCR).” for “(qPCR). SR-BI gene (Taqman probe Mm00450234.m1),”, “Mm00437390.m1)” for “Mm00437390.m1), SREBP1 (Taqman probe Mm01138344.m1)”
J774 were seeded on 6 well plates (600,000 cells/well) in DMEM 10% FCS. […] Medium was removed and the macrophages were washed with DMEM. […] Gene expression was assayed using the protocols described in Sections 8.3.2 (RNA extraction); 8.3.4 (reverse transcription), and 8.3.5 (qPCR). ABCG1 (Taqman probe Mm00437390.m1), ABCA1 (Taqman probe Mm00442646.m1) and SR-BI (Taqman probe Mm00450234.m1) expression were determined according to the manufacturer's protocol. The reference gene used is HPRT1 (Taqman probe: Mm00446968.m1).
J774 were seeded on 6 well plates (300,000 cells/well) in DMEM 2.5% FCS. […] The next day, medium was replaced by fresh DMEM supplemented with or without ApoA-I (25 or 250 μg/mL) to initiate ApoA-I cholesterol efflux for 2 hours. The experiment was stopped at different time points: 1) J774 stopped before addition of ApoA-I, 2) J774+DMEM (passive efflux for 2 hours), 3) J774+ApoA-I (25 μg/mL) for 2 hours and 4) J774+ApoA-I (250 μg/mL) for 2 hours. The RNA was extracted with the RiboPure™ kit according to the manufacturer's protocol. Gene expression was assayed using the protocols described in Sections 8.3.2 (RNA extraction); 8.3.4 (reverse transcription), and 8.3.5 (qPCR). ABCA1 (Taqman probe Mm00442646.m1), ABCG1 (Taqman probe Mm00437390.m1), and SR-BI (Taqman probe Mm00450234.m1) expression were determined according to the manufacturer's protocol. The reference gene used is HPRT1 (Taqman probe: Mm00446968.m1).
This study examined the effect of HDL2 on ABCA1, ABCG1 and SR-BI mRNA levels in mouse macrophages. […] J774 were seeded on 6 well plates (300,000 cells/well) and loaded with oxidized-LDL. HDL2 (from 2.5 to 1000 μg/mL) were added for 6 hours on the macrophages and the RNA were extracted with the RiboPure™ kit according to the manufacturer's protocol. Gene expression was assayed using the protocols described in Sections 8.3.2 (RNA extraction); 8.3.4 (reverse transcription), and 8.3.5 (qPCR). ABCA1 (Taqman probe Mm00442646.m1), ABCG1 (Taqman probe Mm00437390.m1) and SR-BI (Taqman probe Mm00450234.m1) gene expression were determined according to the manufacturer protocols.

[3] = Study O, 0.03 to 30 mM, 6 hours
[4] = Study J, 24 hours treatment, 250 μg/mL

Molecule	SR-BI mRNA level [1, 3]	ABCG1 mRNA level [2, 3]	SR-BI mRNA level [1, 4]	ABCG1 mRNA expression ([2]; Study B, oxidized-LDL loaded, 25, 250 and 1000 μg/mL, 6 hours)	ABCG1 mRNA level ([2]; Study G, 250 μg/mL, 6 hours, without cAMP)	ABCG1 mRNA level (RQ) ([2]; Study G, overnight cAMP 300 μM, then 250 μg/mL 6 hours)	dose of maximum decrease of ABCG1 mRNA level ([2]; Study I, 6 hours)	doses at which decrease of ABCG1 mRNA level was observed ([2]; Study I, 6 hours, presence or absence of cAMP) [µg/mL]	ABCG1 mRNA level [2, 4]	time for ABCG1 mRNA level to return to baseline after removal ([2]; Study J, after 24 hours at 250 μg/mL) [h]
OC[C@H]1O[C@@H]2O[C@H]3[C@H](O)[C@@H](O)[C@@H](O[C@H]4[C@H](O)[C@@H](O)[C@@H](O[C@H]5[C@H](O)[C@@H](O)[C@@H](O[C@H]6[C@H](O)[C@@H](O)[C@@H](O[C@H]7[C@H](O)[C@@H](O)[C@@H](O[C@H]8[C@H](O)[C@@H](O)[C@@H](O[C@H]1[C@H](O)[C@H]2O)O[C@@H]8CO)O[C@@H]7CO)O[C@@H]6CO)O[C@@H]5CO)O[C@@H]4CO)O[C@@H]3CO [β-cyclodextrin, reference compound]	dose-dependent increase	dose-dependent decrease								
CER-001: engineered recombinant human apolipoprotein A-I HDL with sphingomyelin and DPPG; protein-to-phospholipid ratio 1:2.7, 97% Sph and 3% DPPG			do not change the mRNA level of SR-BI	decreased the ABCG1 mRNA at all the doses	decreased	1	around 15 μg/mL	4 to 6	decrease	8
